The source of these data is US20050239872A1, “1,5-distributed pyrrolid-2-one derivatives for use as ep4 receptor agonists in the teatment of eye diseases such as glaucoma” (priority 2002, published 2005).

Data set [1] deals with more than 80 receptors and enzymes. In words: PanLab screening against more than 80 receptors and enzymes. The following applies: concentrations greater than 10 μM.
Data set [2] can be described thus: Oral pharmacokinetics in rats. It counts as in vivo.

As to `O=C1CC[C@H](/C=C/C(O)C(F)(F)c2ccccc2)N1CCCCCCc1nnn[nH]1` (stereo partly drawn) [Compound 7, (5R)-5[(1E)-4,4-difluoro-3-hydroxy-4-phenylbut-1-enyl]-1-[6-(1H-tetraazol-5-yl)hexyl]pyrrolidin-2-one], the “activity in PanLab screening” value in data set [1] is given as “no significant activities”. Moreover, in data set [2], the “terminal elimination half life” value is recorded as “good”. In data set [2] (oral), the oral bioavailability result is given as “good”.
